Assay results: US12508241B2, “Peripheral nerve agonists suppress inflammation” (University of Pittsburgh—Of the Commonwealth System of …, priority 2019, dated 2025)

Tests used:
MRGPRD = MRGPRD (Homo sapiens, UniProt Q8TDS7); conditions: cited from earlier work; for activity as MRGPRD agonists relative to β-ala: compared with β-ala
mast cell degranulation [1] = experiment: 48/80-mediated mast cell degranulation, Evan's blue dye in the skin, i.d. β-alanine pre-treatment; format: in vivo, C57BL/6 mice
Experimental: Compound 48/80, the condensation product of N-methyl p-methoxyphenethylamine and formaldehyde, is a well-known chemical that induces rapid mast cell degranulation and associated edema. The degree of edema in the skin is measured by the amount of Evan's blue dye in the skin. […] In mice that lack MRGPRD neurons, β-alanine had no effect on 48/80's ability to activate mast cells (compare columns 5 and 6). This is a specificity control since the neurons that express the receptor for β-alanine are absent.

[2] = tested on: DNFB contact hypersensitivity; conditions: MRGPRD-DTR mice treated with DT (MRGPRD-ablated), same regimen
Experimental: Referring to FIG. 2, cohorts of C57BL/6 mice (n=5) were either pre-treated by i.d. injection of b-alanine (WT+b-ala) or vehicle (WT) on the abdomen for 2 days followed by sensitization at the same site with 0.2% DNFB (a chemical sensitizer). Five days later 0.2% DNFB was applied to the ear. The increased degree of ear swelling on the indicated day compared to ear thickness prior to application of DNFB was measured. Increased ear thickness was employed a surrogate for the amount of immune response to DNFB was measured. As a specificity control, MRGPRD-DTR mice treated with DT to ablate MRGPRD-expressing neurons (labeled MRGPRD in FIG. DD), and were treated similarly (MRGPRD and MRGPRD+b-ala).

mast cell degranulation [3] = conditions: 5% topical, shaved flank skin twice daily for 2 days, then i.d. compound 48/80, read ten minutes later; figure values in μg per g of tissue, p<0.01
Experimental: Mice were then given Evans' blue dye i.v. followed by an intradermal injection of compound 48/80. Ten minutes later, the amount of Evans' blue dye present in the skin (μg·g^−1 of tissue) as an indication of the extent of mast cell degranulation was determined by skin biopsy, enzymatic digestion, and […] evaluation.

wound healing pathways = conditions: 100 mM injected twice daily for 2 days, WT C57BL/6; compared with published tape stripping RNAseq data
Experimental: Wild type C57BL/6 mice were injected with 100 mM β-alanine or vehicle twice daily for 2 days. Skin at the treated sites were harvested and mRNA was obtained and subjected to RNAseq. Genes with increased gene expression in the β-alanine treated group were anayzed by pathway analysis.

MRGPRD, sequence (Q8TDS7 whole entry): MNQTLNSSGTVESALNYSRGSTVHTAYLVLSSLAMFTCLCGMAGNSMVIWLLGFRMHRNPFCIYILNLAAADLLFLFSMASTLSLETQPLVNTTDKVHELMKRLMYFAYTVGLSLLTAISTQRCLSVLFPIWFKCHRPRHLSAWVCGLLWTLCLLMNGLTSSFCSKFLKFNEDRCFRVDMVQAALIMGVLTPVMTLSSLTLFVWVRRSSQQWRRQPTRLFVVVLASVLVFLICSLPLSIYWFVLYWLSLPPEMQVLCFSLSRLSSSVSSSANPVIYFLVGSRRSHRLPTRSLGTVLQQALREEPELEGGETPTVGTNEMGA

SMILES	activity as MRGPRD agonists relative to β-ala (MRGPRD)	Evan's blue dye in the skin (edema, mast cell degranulation) after compound 48/80 (mast cell degranulation [1]; C57BL/6 mice, i.d. pre-treatment for 2 days, then i.d. compound 48/80, FIG. 1 columns 3 and 4)	Evan's blue dye in the skin (48/80's ability to activate mast cells) (mast cell degranulation [1]; mice that lack MRGPRD neurons (specificity control), FIG. 1 columns 5 and 6)	cutaneous mast cell function (mast cell degranulation [1]; wild-type mice (summary statement of Example 1))	ear swelling (immune response to DNFB) [2]	mast cell degranulation (dermal Evan's blue dye) (mast cell degranulation [3])	pathways activated in skin (RNAseq pathway analysis) (wound healing pathways)	forskolin-stimulated cAMP production (MRGPRD; cells expressing MRGPRD)
NCCCC(=O)O [GABA, 4-aminobutanoic acid]	significantly weaker	–	–	–	–	–	–	–
CC(CN)C(=O)O (stereo not drawn) [β-AIBA, 3-aminoisobutyric acid]	significantly weaker	–	–	–	–	–	–	–
NCCC(=O)O [β-alanine, 3-aminopropanoic acid]	–	inhibited this effect	no effect	sufficient to suppress	no effect	suppresses	activates wound healing pathways	decreases
